# Experiment: Tests of solubilization of a hydroxylated diphenylmethane compound of formula (I) in solubilizers
# Assay type: physicochemical
# Details: for % max solubility of the hydroxylated diphenylmethane compound of formula (I): optionally heated to 45° C., stirred one hour
# Protocol: The compound Phenylethylbenzendiol marketed under the name Symwhite® by Symrise is used as hydroxylated diphenylmethane compound of formula (I).
# This compound is weighed and placed in a sealed specimen tube.
# Several solubilizers are tested: 10 ml of solubilizer are placed in a beaker and the compound Phenylethylbenzendiol is added mg per mg. The suspension, optionally heated to 45° C., is stirred by magnetic stirring for one hour.
# The dissolution or non-dissolution of the hydroxylated diphenylmethane compound of formula (I), and its variation over time are then monitored.
# The non-solubility of the hydroxylated diphenylmethane compound of formula (I) in the solubilizer is macroscopically characterized by a precipitate or just a cloudy solution, and microscopically by the presence of crystals.
compound,measurement,setting,value
"CC(c1ccccc1)c1ccc(O)cc1O (centres unmarked) [4-(1-phenylethyl)-1,3-benzenediol]",amount solubilized,solubilizer: 2-octyldodecanol,more than 20 % by weight
same,amount solubilized,solubilizer: Dicaprylyl carbonate,more than 20 % by weight
same,amount solubilized,solubilizer: dimethyl isosorbide,more than 20 % by weight
same,amount solubilized,solubilizer: isopropyl N-lauroylsarcosinate (remainder of the solution consisting of the solubilizer),up to 42 % by weight
same,amount solubilized,solubilizer: octyl methoxycinnamate,more than 20 % by weight
same,% max solubility of the hydroxylated diphenylmethane compound of formula (I),solvent: 2-Octyldodecanol (EUTANOL G from COGNIS),22.52%
same,% max solubility of the hydroxylated diphenylmethane compound of formula (I),solvent: Apricot oil (APRICOT KERNEL OIL from DESERT WHALE),10.00%
same,% max solubility of the hydroxylated diphenylmethane compound of formula (I),"solvent: Apricot oil (APRICOT KERNEL OIL from DESERT WHALE), listed as hydroxylated diphenylmethane compound (I)",≤ 10%
same,% max solubility of the hydroxylated diphenylmethane compound of formula (I),solvent: Dicaprylyl carbonate (CETIOL CC from COGNIS),26.74%
same,% max solubility of the hydroxylated diphenylmethane compound of formula (I),solvent: Dimethyl isosorbide (ARLASOLVE DMI from UNIQEMA),31.30%
same,% max solubility of the hydroxylated diphenylmethane compound of formula (I),"solvent: Hydrogenated isoparaffin (PARLEAM from NOF CORPORATION), paraffin oil",not soluble
same,% max solubility of the hydroxylated diphenylmethane compound of formula (I),"solvent: Hydrogenated isoparaffin (PARLEAM from NOF CORPORATION), paraffin oil, listed as hydroxylated diphenylmethane compound (I)",does not make it possible to solubilize
same,% max solubility of the hydroxylated diphenylmethane compound of formula (I),solvent: Isopropyl N-lauroylsarcosinate (ELDEW SL 205 from AJINOMOTO),42.00%
same,% max solubility of the hydroxylated diphenylmethane compound of formula (I),solvent: Octyl methoxycinnamate (PARSOL MCX from GIVAUDAN (DSM Nutritional Products)),26.00%
